Experimental data taken from US8466193B2, “Selective inhibitors of histone deacetylase” (Pharmacyclics, Inc., priority 2008, dated 2013).

Assay: Pharmacokinetic analysis in male rats, oral gavage
Assay type: in vivo
Conditions: CD IGS (Sprague-Dawley derived), rat, plasma, orally at 3 mg/kg, compounds administered in combination
Protocol: This study, performed in male rats with test compounds (Compound 303 and Compound 316), was designed to provide preliminary information on their pharmacokinetics. The test compounds were administered in combination by oral gavage.
The specifications for rats used on this study are as follows: • Strain: CD® IGS rats (Sprague-Dawley derived) • Source: Charles River Laboratories • Surgical modification for oral dosing: One portal vein cannula and one jugular vein cannula • Body weight range at dosing 350 to 375 g
The rats were acclimatized to laboratory conditions for at least 24 hours before dosing. The evening before dosing, food was withheld from the rats and was returned immediately following the 3-hour blood collection time point. Water was provided ad libitum. The rats were housed individually in translucent polycarbonate cages.
Test compounds were prepared as 3.0 mg/ml solutions (1% MC/0.4% Cr EL in WFI).
Rats were administered a single dose of test compound in combination by oral gavage. Dose volumes were adjusted based on body weight data collected immediately prior to dosing.
The dose volume was 1 ml/kg and the nominal dosage was 3 mg/kg.
Blood samples were collected at 5 minutes, 20 minutes, 1 hour, 3 hours, 6 hours, 9 hours, and 24 hours post-dosing from orally dosed rats. The samples were collected into plasma separator Microtainer tubes with anticoagulant (lithium heparin). Plasma samples were prepared by centrifugation (5 min at 5000×g), and at least 100 μL were transferred to storage tubes and frozen on dry ice. Samples were maintained at approximately −75 C until prepared for analysis.
Plasma samples were thawed and 75 uL aliquots were transferred to centrifuge tubes to which 10 μL aliquots of internal standard solution (0.5 μg/mL) were added. The samples were not diluted with blank plasma prior to further processing. Soluble proteins were precipitated by the addition of 300 μL of methanol, followed by centrifugation (20 min at 16,000×g). The samples were evaporated to dryness and reconstituted in 100 μL of water containing 0.2% formic acid and 10% methanol. All samples were loaded onto an autosampler maintained at 6° C. and evaluated for concentrations of test compound using LC-MS/MS. lasma concentration data were evaluated using the computer program WinNonlin (Professional Edition, Pharsight Corporation, version 5.01). […]
Pan HDAC inhibitor 3-((dimethylamino)methyl)-N-(2-(4-(hydroxycarbamoyl)phenoxy)ethyl)benzofuran-2-carboxamide was added to the cassette to serve as a standard since the pharmacokinetics of this compound have been determined previously in rats. The UC's determined for rats administered Compound 303 and Compound 316 orally at 3 mg/kg were 1.42, and 5.36 μg·h/mL, respectively. […]

AUC: 5360 ng·h/mL
Cmax: 828 ng/mL
Structure (SMILES): O=C(NO)c1ccc2ccn(CCOc3ccccc3)c2c1 [Compound 316, N-hydroxy-1-(2-phenoxyethyl)-1H-indole-6-carboxamide]
